Experimental data taken from publication PMC9944328 (Nature Communications, 2023).
Where “and” joins values, the source holds several entries; their conditions need not be identical. Equal entries are not always repeated.

How the values were obtained:
[1] = tested on: SSTR2 Y302A mutant; set-up: method as in earlier work; conditions: Y302(7.43)A; ref 20 of peer review file (Zhao, W. et al., 2022); cited from earlier work
[2] = molecular target: SSTR2 mutants (Homo sapiens, UniProt P30874, I284A); assay: SSTRs Gi-mediated cAMP inhibition, GloSensor, HEK293, 5 μM forskolin, 15 min room temperature (SSTR2 mutants); format: cell-based; set-up: The human full-length SSTRs and mutants were cloned into the pcDNA3.1+ vector; expressed in transfected cells; host or cells: HEK293 (ATCC, CRL-1573); Best-fit Bottom, cAMP inhibition / Best-fit Top, cAMP inhibition / Span, cAMP inhibition / Bottom (best-fit value) / Top (best-fit value) / Span (best-fit value) / Span (best-fit) / Bottom (best-fit) / Top (best-fit) / Best-fit Bottom / Best-fit Top / Best-fit Span / Top / Span: scale not given here; conditions: I284A, best-fit, runs 1-3
Protocol: (§1) The levels of the intracellular 3′, 5′-cyclic AMP (cAMP) were measured by the GloSensor cAMP assay (Promega) as described in the previous studies[28],[41] which has been widely used. The human full-length SSTRs and mutants were cloned into the pcDNA3.1+ vector with a HA signal sequence followed by a Flag tag at the N-terminus. HEK293 cells (ATCC, CRL-1573) were seeded into 6-well microplates at a density of 1.0 × 10^6 cells/well and cultured for 24 h at 37 °C with 5% CO2. Cells were then co-transfected with SSTR wild-type or mutants and GloSensor plasmids. After 24 h of transfection, the cells were dissociated with TrypLE™ Express Enzyme (1X) (Thermo Fisher Scientific) and collected by centrifugation at 500 × g for 5 min. Then the collected cells were suspended in Hank’s balanced salt solution [HBSS (Thermo Fisher Scientific)] supplemented with […] (YEASEN), and then the suspension cells were seeded into 96-well plates with 90 μl/well. After incubating at room temperature for 40 min, 5 μM forskolin and ligands diluted in HBSS were added to each well and the plates were incubated at room temperature for 15 min. […] were measured using the Synergy H1 microplate reader (BioTek) and the data presented are means of at least three independent experiments.

[3] = molecular target: T1, SSTR2 mutants (Homo sapiens, UniProt P30874, N276A); assay: Bystander BRET endosomal trafficking (β-arrestin 1-Nluc, FYVE-mVenus), HEK293 (SSTR2 mutants); conditions: best-fit value;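 further: Read-out is the BRET ratio between Nluc-fused β-arrestin 1 and the early endosome marker FYVE-mVenus, measured after ligand addition with coelenterazine h as substrate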;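 on Bottom: percent of maximal wild-type response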
Protocol: (§2) Wild-type or mutant SSTR2, β-arrestin 1-Nluc and FYVE-mVenus were co-transfected in HEK293 cells at a ratio of 1:0.5:4 on six-well plates. The next day, the transfected cells were plated on white 96-well and incubated overnight, and then cells were incubated with 90 µL HBSS containing 20 mM HEPES and coelenterazine h (5 µM) at room temperature for 40 min. After incubation, ligand was added and the signal was measured using the Synergy H1 microplate reader (BioTek) to determine a BRET ratio.

[4] = molecular target: SSTR2 mutants (Homo sapiens, UniProt P30874, F294A); assay: as above; conditions: for Bottom: best-fit value
Protocol: as §2

[5] = molecular target: SSTR2 mutants (Homo sapiens, UniProt P30874, Y312A); assay: cell-based
Protocol: as §2

[6] = molecular target: T1, SSTR2 mutants; assay: cell-based
Protocol: as §2

[7] = molecular target: SSTR2 mutants (Homo sapiens, UniProt P30874, R140A); assay: cell-based
Protocol: as §2

[8] = molecular target: T1, SSTR2 mutants
Protocol: as §2

[9] = molecular target: T2, SSTR2 mutants (Homo sapiens, UniProt P30874, Y50A); assay: SSTRs Gi-mediated cAMP inhibition, GloSensor, HEK293, 5 μM forskolin, 15 min room temperature (SSTR2 mutants); format: cell-based; set-up: Best-fit Bottom, cAMP inhibition / Best-fit Top, cAMP inhibition / Span, cAMP inhibition / Bottom (best-fit value) / Top (best-fit value) / Span (best-fit value) / Span (best-fit) / Bottom (best-fit) / Top (best-fit) / Best-fit Bottom / Best-fit Top / Best-fit Span / Top / Span: scale not given here; conditions: Y50A, best-fit, runs 1-3
T2 construct: The human full-length SSTRs and mutants were cloned into the pcDNA3.1+ vector; expressed in transfected cells; host or cells: HEK293 (ATCC, CRL-1573)
Protocol: as §1

[10] = molecular target: T3, SSTR2 mutants (Homo sapiens, UniProt P30874, T194A); assay: as above; format: cell-based; set-up: Best-fit Bottom, cAMP inhibition / Best-fit Top, cAMP inhibition / Span, cAMP inhibition / Bottom (best-fit value) / Top (best-fit value) / Span (best-fit value) / Span (best-fit) / Bottom (best-fit) / Top (best-fit) / Best-fit Bottom / Best-fit Top / Best-fit Span / Top / Span: scale not given here; conditions: T194A, best-fit, runs 1-3
T3 construct: The human full-length SSTRs and mutants were cloned into the pcDNA3.1+ vector; expressed in transfected cells; host or cells: HEK293 (ATCC, CRL-1573)
Protocol: as §1

[11] = molecular target: T4, SSTR2 mutants (Homo sapiens, UniProt P30874, I195A); assay: as above; format: cell-based; set-up: Best-fit Bottom, cAMP inhibition / Best-fit Top, cAMP inhibition / Span, cAMP inhibition / Bottom (best-fit value) / Top (best-fit value) / Span (best-fit value) / Span (best-fit) / Bottom (best-fit) / Top (best-fit) / Best-fit Bottom / Best-fit Top / Best-fit Span / Top / Span: scale not given here; conditions: I195A, best-fit, runs 1-3
T4 construct: The human full-length SSTRs and mutants were cloned into the pcDNA3.1+ vector; expressed in transfected cells; host or cells: HEK293 (ATCC, CRL-1573)
Protocol: as §1

[12] = molecular target: SSTR2 mutants (Homo sapiens, UniProt P30874); assay: as above; format: cell-based; set-up: Best-fit Bottom, cAMP inhibition / Best-fit Top, cAMP inhibition / Span, cAMP inhibition / Bottom (best-fit value) / Top (best-fit value) / Span (best-fit value) / Span (best-fit) / Bottom (best-fit) / Top (best-fit) / Best-fit Bottom / Best-fit Top / Best-fit Span / Top / Span: scale not given here
Protocol: as §1

[13] = molecular target: T5, SSTR2 mutants (Homo sapiens, UniProt P30874, L99A); assay: as above; format: cell-based; set-up: Best-fit Bottom, cAMP inhibition / Best-fit Top, cAMP inhibition / Span, cAMP inhibition / Bottom (best-fit value) / Top (best-fit value) / Span (best-fit value) / Span (best-fit) / Bottom (best-fit) / Top (best-fit) / Best-fit Bottom / Best-fit Top / Best-fit Span / Top / Span: scale not given here; conditions: L99A, best-fit, runs 1-3
T5 construct: The human full-length SSTRs and mutants were cloned into the pcDNA3.1+ vector; expressed in transfected cells; host or cells: HEK293 (ATCC, CRL-1573)
Protocol: as §1

Sequence of SSTR2 mutants (Homo sapiens, UniProt P30874, I284A) (P30874 whole entry I284A): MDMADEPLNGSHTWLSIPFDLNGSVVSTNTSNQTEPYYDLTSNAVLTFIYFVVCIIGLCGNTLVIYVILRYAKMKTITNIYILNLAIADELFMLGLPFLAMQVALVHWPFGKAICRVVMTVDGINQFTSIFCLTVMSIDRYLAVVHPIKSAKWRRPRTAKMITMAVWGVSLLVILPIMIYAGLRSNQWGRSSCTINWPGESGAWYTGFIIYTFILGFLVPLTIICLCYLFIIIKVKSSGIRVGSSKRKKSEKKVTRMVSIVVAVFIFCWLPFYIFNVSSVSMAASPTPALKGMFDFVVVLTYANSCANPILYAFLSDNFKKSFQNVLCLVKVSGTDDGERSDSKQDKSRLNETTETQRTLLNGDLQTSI
T3 sequence (P30874 whole entry T194A): as the sequence (P30874 whole entry I284A) above, with T194A, A284I counted along it
T5 sequence (P30874 whole entry L99A): as the sequence (P30874 whole entry I284A) above, with L99A, A284I counted along it
Sequence of SSTR2 mutants (Homo sapiens, UniProt P30874, F294A) (P30874 whole entry F294A): as the sequence (P30874 whole entry I284A) above, with A284I, F294A counted along it
T4 sequence (P30874 whole entry I195A): as the sequence (P30874 whole entry I284A) above, with I195A, A284I counted along it
T2 sequence (P30874 whole entry Y50A): as the sequence (P30874 whole entry I284A) above, with Y50A, A284I counted along it
Sequence of SSTR2 mutants (Homo sapiens, UniProt P30874) (P30874 whole entry Y205R): as the sequence (P30874 whole entry I284A) above, with Y205R, A284I counted along it
T1 sequence (P30874 whole entry N276A, the tested form may be a part): as the sequence (P30874 whole entry I284A) above, with N276A, A284I counted along it
Sequence of SSTR2 mutants (Homo sapiens, UniProt P30874, R140A) (P30874 whole entry R140A): as the sequence (P30874 whole entry I284A) above, with R140A, A284I counted along it
Sequence of SSTR2 mutants (Homo sapiens, UniProt P30874, Y312A) (P30874 whole entry Y312A): as the sequence (P30874 whole entry I284A) above, with A284I, Y312A counted along it

C[C@@H](O)[C@@H]1NC(=O)[C@H](CCCCN)NC(=O)[C@@H](Cc2c[nH]c3ccccc23)NC(=O)[C@H](Cc2ccccc2)NC(=O)[C@@H](NC(=O)[C@H](N)Cc2ccccc2)CSSC[C@@H](C(=O)N[C@H](CO)[C@@H](C)O)NC1=O [octreotide]
Binding to mutant [1]: nearly abolished the binding

N#Cc1cccc(-c2ccc3ncc(-c4cc(F)cc(F)c4)c(N4CCC(N)CC4)c3c2)c1O [paltusotine]
Span [2]: 112.7 and 91.59 and 139.6
Top [2]: 112.9 and 105.5 and 122.9
Bottom ([3]; N276A-1 (run 1)): 0.05559
Bottom ([3]; N276A-2 (run 2)): -0.1543
Bottom ([3]; N276A-3 (run 3)): -2.441
EC50 [4]: 2094 ± 1.18 nM
Emax ([4]; HEK293): 95.1 ± 4.53%
Bottom ([4]; F294A-1 (run 1)): 0.7189
Bottom ([4]; F294A-2 (run 2)): -2.342
Bottom ([4]; F294A-3 (run 3)): -0.7874
EC50 [5]: 8.13 ± 1.64 nM
EC50 [6]: 145.2 ± 1.11 nM
EC50 [7]: 7.8 ± 1.47 nM
Emax [8]: 81 ± 1.71%
Span [9]: 121 and 122.3
Top [9]: 113.5 and 115.2 and 115.4
Span [10]: 81 and 79.63 and 75.68
Top [10]: 82.51 and 80.87 and 82.26
Span [11]: 93.79 and 93.25 and 119.7
Top [11]: 101.8 and 93.82 and 123
EC50 ([12]; EC50, D295F, run 1): 0.324 nM
EC50 ([12]; EC50, D295F, run 2): 0.205 nM
EC50 ([12]; EC50, D295F, run 3): 1.56 nM
EC50 ([12]; EC50, F294Y, run 1): 0.735 nM
EC50 ([12]; EC50, F294Y, run 3): 0.676 nM
EC50 ([12]; EC50, Y205R, run 1): 0.344 nM
EC50 ([12]; EC50, Y205R, run 2): 0.237 nM
Span [13]: 97 and 104.2 and 101.2
Top [13]: 103.3 and 108.8 and 111.2
